Measured values as given in patent publication US20210113482A1, “Poly (Alkyl Cyanoacrylate) Nanoparticles for Use in Treatment of Cancer” (Sintef TTO AS, priority 2018, published 2021).
Read-outs that look alike come from different tables or passages of the source.

Experiments:
[1] = tested on: MAS98.12 patient derived xenograft (PDX) breast tumor, basal-like; experiment: Treatment efficacy in mice bearing MAS98.12 patient derived xenograft; assay type: in vivo
Protocol: (§1) Treatment efficacy evaluation in nude mice.
(§2) The ortothopically growing basal-like xenograft model MAS98.12 has been established in house and was used as previously described in Lindholm et al (2012). When using the MDA-MB-231 cell line, 1.5 million cells were injected into the mammary fat pad and growing tumors were used for sequential implantation. As for the MAS98.12 model, 1-2 mm^3 pieces of healthy tumor tissue were implanted bilaterally into the mammary fat pad of female athymic mice. After the tumors reached approximately 5 mm in diameter, the mice were randomly assigned to the different treatment groups (the average volume of each group was 49-57 mm^3).
Statistical analyses. To calculate the significance in the efficacy studies, the area under the curve was calculated for each tumor and the mean values of the groups were compared using the Welch unequal variance. To determine whether there is a significant difference between the frequencies of the tumor regression in the different treatment groups, we used the Fischer's exact test. If not stated otherwise, an unpaired two-sided Student t-test without Welch correction was used. The statistical analyses were performed using either GraphPad Prism (version 7.00 for Windows, GraphPad Software, La Jolla, Calif., US) or Microsoft Excel.

[2] = tested on: MDA-MB-231 tumors; experiment: Treatment efficacy in mice bearing MDA-MB-231 tumors; assay type: in vivo; settings: 2×15 mg CBZ/kg i.v.
Protocol: as §1, §2

[3] = Pharmacokinetics in blood: CBZ in plasma by LC-MS/MS in MAS98.12 bearing mice; assay type: in vivo; settings: female, athymic nude foxn1nu, mouse, iv, 15 mg/kg, 15 mg/kg i.v.
Protocol: (§3) CBZ quantification by LC-MS/MS. CBZ, as the pure chemical or part of NPs, was quantified by LC-MS/MS, using an Agilent 1290 HPLC system coupled to an Agilent 6490 triple quadrupole mass spectrometer. The HPLC column was an Ascentis Express C8, 75×2.1 mm, 2.7 μm particles size with a 5×2.1 mm guard column of the same material (Sigma), run at 40° C. Eluent A was 25 mM formic acid in water and eluent B was 100% methanol, and flow rate was 0.5 ml/min. The mobile phase gradient was isocratic at 55% B for 1.5 min, then from 55% to 80% B over 1 min, followed by 1 min washout time and subsequently column re-equilibration. Injection volume was 5.00 μl. MS detection was in positive ESI mode (Agilent Jetstream) quantified in multiple reaction monitoring (MRM) mode using the transition m/z 858.3→577.2. The parent ion was chosen to be the Na adduct as this gave the best sensitivity. Similarly, the hexadeuterated internal standard was detected on the 864.4→583.2 transition. Both analytes were run at 380 V fragmentor and 20 V collision energy.
Processing of tissue samples before LC-MS/MS analyses. In order to process the tissue samples such that their CBZ content could be quantified, we developed a protocol for enzymatic digestion of tissue followed by extraction and quantification of CBZ using the LC-MS/MS method described above. […]

[4] = Biodistribution: CBZ in tumor and organs by LC-MS/MS in MAS98.12 bearing mice; assay type: in vivo; settings: 15 mg/kg i.v.
Protocol: as §3
Processing of tissue samples before LC-MS/MS analyses. In order to process the tissue samples such that their CBZ content could be quantified, we developed a protocol for enzymatic digestion of tissue followed by extraction and quantification of CBZ using the LC-MS/MS method described above. The enzyme buffer consisted of Dulbecco's Modified Eagle Medium (DMEM, Thermo Fisher Scientific, USA, 41965039) with 1% (v/v) penicillin-streptomycin stock solution (Sigma-Aldrich, P0781) to a final concentration of 100 U/ml penicillin and 100 μg/ml streptomycin, 0.125 mg/ml papain (Merck, F275644), 2.5 mg/ml trypsin (Sigma-Aldrich, T7409), 0.8 mg/ml collagenase (Sigma-Aldrich, C7926), 0.69 mg/ml hyaluronidase (Sigma-Aldrich, H3506) and 1% (v/v) Triton X-100 (Sigma-Aldrich, T-8787). To determine the biodistribution of CBZ, frozen organs (liver, spleen, lymph nodes, kidneys, tumors) were thawed and freshly prepared enzyme buffer was added at 1 ml per 50 mg tissue; the entire organs were digested. The samples were heated to 37° C. for 72 h with vortexing once a day, until the tissue was completely dissolved. The tissue digests, as well as the plasma samples from the animals, were diluted 10× in acetone before centrifugation; this has the dual effect of both precipitating proteins and other macromolecules, thus cleaning up the sample, and making sure all CBZ is solubilized. Internal standard (hexadeuterated CBZ) dissolved in acetone was added to a final concentration of 10 ng/ml during the acetone dilution to correct for possible matrix effects.
Biodistribution and pharmacokinetics in blood. Blood and tissue samples were obtained following a single i.v. injection of PEBCA-CBZ and non-encapsulated CBZ (15 mg/kg) into the tail vein of mice bearing the MAS98.12 tumor (n=3). Empty particles (PEBCA) and saline were used as negative controls. The blood samples were taken either per tail vein puncture (approximately after 2 min and thereafter at 1, 4 and 24 h after injection) or by terminal cardiac puncture (96 h after injection) in Vacutainer tubes containing EDTA (BD Biosciences, San Jose, Calif., USA) and kept on ice. The 0-24 h samples were collected consecutively from the same animals (n=3) while samples after 96 h were obtained from separate mice (n=3). The blood was centrifuged for 15 min at 4° C. and 3400×g, and the supernatant plasma was collected and stored at −80° C. until LC-MS/MS analysis. […]

[5] = tested on: CD68 (whole macrophage population); experiment: Macrophage infiltration in treated MAS98.12 tumors, immunohistochemistry with anti-CD68; assay type: in vivo, mice; settings: 96 h after single injection; compared to free CBZ or saline; not statistically significant
Protocol: (§4) Immunohistochemistry. Tumors from MAS98.12 bearing mice were collected 96 h after a single injection of the same substances as were injected in the MAS98.12 efficacy study. The tumors were preserved in 4% (v/v) formalin and then paraffinized and sliced to prepare consecutive slides (3 μm thick). The deparaffinization agent Neo-clear and mounting agent Neo-mount were obtained from VWR (Radnor, Pa., USA). Heat induced epitope retrieval was performed by placing deparaffinized slides with 10 mM sodium citrate buffer (pH 6.0) in water bath for 20 min at 100° C. Endogenous peroxidase activity was blocked by incubating slides with 3% (v/v) hydrogen peroxide in Tris-buffered saline (TBS; 50 mM Tris-Cl, 150 mM NaCl, pH 7.6). Sections were washed and blocking of non-specific binding was performed with 3% (w/v) bovine serum albumin (Roche diagnostics GmbH, Mannheim, Germany) in TBS for 30 min. Sections were then incubated for 60 min with the primary antibodies. […]
(§5) Stained tissue sections were scanned (NanoZoomer HT, Hamamatsu Photonics, Hamamatsu, Japan) using a 40× objective. The extent of CD68, iNOS and CD206 was automatically scored using the ImmunoPath software (Room4 Ltd., Crowborough, UK). […] The annotated representative areas were analyzed further by computerized image analysis. […]

[6] = tested on: iNOS (M1, anti-tumorigenic pro-inflammatory macrophages); experiment: Macrophage infiltration in treated MAS98.12 tumors, immunohistochemistry with anti-iNOS; assay type: in vivo, mice; settings: 96 h after single injection
Protocol: as §4, §5

[7] = tested on: CD206 (M2, pro-tumorigenic anti-inflammatory macrophages); experiment: Macrophage infiltration in treated MAS98.12 tumors, immunohistochemistry with anti-CD206; assay type: in vivo, mice; settings: 96 h after single injection
Protocol: as §4, §5

[8] = tested on: MDA-MB-231, MDA-MB-468 and MCF-7 cells; experiment: In vitro cellular toxicity: MTT cell viability (72 h) and [3H]thymidine incorporation (24 h) in three breast cancer cell lines; assay type: cell-based, human; settings: MTT assay, 72 h incubation, all cell lines
Protocol: Cell lines. Three breast cancer cell lines were used in this study. The MDA-MB-231 (triple negative; Claudin low), was cultured in RPMI 1640; the MDA-MB-468 (triple negative; basal) and the MCF-7 (luminal A) cell lines were cultured in DMEM. All medium was fortified with 10% (w/v) fetal calf serum albumin (Sigma) and 100 units/ml penicillin/streptomycin (PenStrep®, Sigma). All cell lines were obtained from ATCC and were routinely tested for mycoplasma. Cells growing in 24- or 96-well plates were incubated with serial dilutions of PEBCA-CBZ, CBZ (non-encapsulated CBZ) dissolved in Tween-80 (Fluka)), and PEBCA without CBZ for 24, 48 or 72 h at 37° C. in an atmosphere of 5% CO2. The toxicity was assessed either by the commonly used MTT (3-(4,5-dimethylthiazol-2-yl)-2,5-diphenyltetrazolium bromide) cell viability assay, by measuring cell proliferation based on [^3H]thymidine incorporation, by measuring protein synthesis by incorporation of [^3H]leucine and by measuring ATP levels using CellTiter Glo®.
MTT cell viability assay. […] The absorbance was read in a plate reader (Biosys Ltd, Essex, UK) at 570 nm, and background from absorbance at 650 nm was subtracted.
Cell proliferation measured by [^3H]thymidine incorporation. […] The radioactivity was counted for 1 min in a scintillation counter (Tri-Carb 2100TR, Packard Bioscience, USA).

## CO[C@H]1C(=O)[C@]2(C)[C@@H](OC)C[C@H]3OC[C@@]3(OC(C)=O)[C@H]2[C@H](OC(=O)c2ccccc2)[C@]2(O)C[C@H](OC(=O)[C@H](O)[C@@H](NC(=O)OC(C)(C)C)c3ccccc3)C(C)=C1C2(C)C [CBZ, cabazitaxel]
[1]; 2×15 mg CBZ/kg i.v. (particle dose 2×175 mg/kg), day 33 and 36
  Tumor growth: markedly inhibited tumor growth
[1]; 2×15 mg CBZ/kg i.v., non-palpable tumors at day 57 after implantation
  tumors in complete remission: 2 out of 9
[2]
  Tumor growth: a delay in tumor growth was observed
  efficacy compared to MAS98.12: less effective
[3]; from mean values of the two last time points (24 and 96 h), read-out: elimination half-life (converted)
  half-life: ~3600 min
[3]; interpolation of the two first data points (up to 1 hr), read-out: distribution half-life
  half-life: ~30 min
[4]
  change of CBZ concentration in tissue from 24 to 96 h: significantly lower in tumors after 96 h
[4]; 24 h
  CBZ level in tumor relative to the PEBCA-CBZ group: about ⅓
  tissue with the highest CBZ amount: the tumor
[4]; 96 h
  tissues in which CBZ could be detected (above LOQ): only in the tumor tissue
[4]; 96 h, difference not significant (p=0.18)
  CBZ concentration in tumors relative to that after PEBCA-CBZ: approximately 50%
[5]
  total tumor infiltrating macrophages (CD68): no response in the macrophage populations
[6]
  pro-inflammatory M1 macrophages (iNOS) in tumors: no response in the macrophage populations
[7]
  anti-inflammatory M2 macrophages (CD206 positive cells) in tumors: no response in the macrophage populations
[8]
  fraction of the cells surviving even very high CBZ concentrations: 10-20%
